Source: patent US4520023A, “3-(3-Iodopropargyl)-benzo-1,2,3-triazin-4-ones, and their use in microbicidal agents” (Bayer Aktiengesellschaft, priority 1982, dated 1985)
Converted amounts (≈) assume the structure as drawn. Where two headings read alike, the source gives them in different places.

What was measured:
[1] = test system: Aspergillus niger; test: Agar MIC determination, Aspergillus niger; assay type: cell-based; conditions: 336 h, beerwort/peptone agar, 28° C., 2 weeks
Experimental: (§1) Active compounds according to the invention are added, in concentrations of 0.1 mg/liter to 5,000 mg/liter, to an agar prepared from beerwort and peptone. After storage at 28° C. and 60 to 70% relative atmospheric humidity for 2 weeks, the MIC is determined.

[2] = test system: Chaetomium globosum; test: Agar MIC determination, Chaetomium globosum; assay type: cell-based; conditions: 336 h, beerwort/peptone agar, 28° C., 2 weeks
Experimental: as §1

[3] = test system: Penicillium glaucum; test: Agar MIC determination, Penicillium glaucum; assay type: cell-based; conditions: 336 h, beerwort/peptone agar, 28° C., 2 weeks
Experimental: as §1

[4] = test system: slime organisms; test: Action against slime organisms in Allens nutrient solution; assay type: cell-based; conditions: 504 h
Experimental: Compounds according to the invention, dissolved in acetone, are used in concentrations of in each case 0.1 to 100 mg/liter in Allens nutrient solution (Arch. Mikrobiol. 17, 34 to 53 (1952)) containing, in 4 liters of sterile water, 0.2 g of ammonium chloride, 4.0 g of sodium nitrate, 1.0 g of dipotassium hydrogen phosphate, 0.2 g of calcium chloride, 2.05 g of magnesium sulphate, 0.02 g of iron chloride and 1% of caprolactam. Shortly beforehand, the nutrient solution is infected with slime organisms (about 10^6 germs/ml) which have been isolated from the spinning water circulations used in the preparation of polyamide.

[5] = test system: Trichoderma viride; test: Agar MIC determination, Trichoderma viride; assay type: cell-based; conditions: 336 h, beerwort/peptone agar, 28° C., 2 weeks
Experimental: as §1

[6] = test system: Alternaria tenuis; test: Agar MIC determination, Alternaria tenuis; assay type: cell-based; conditions: Alternaria alternata, 336 h, beerwort/peptone agar, 28° C., 2 weeks
Experimental: as §1

[7] = test system: Aureobasidium pullulans; test: Agar MIC determination, Aureobasidium pullulans; assay type: cell-based; conditions: 336 h, beerwort/peptone agar, 28° C., 2 weeks
Experimental: as §1

[8] = test system: Coniophora cerebella; test: Agar MIC determination, Coniophora cerebella; assay type: cell-based; conditions: 336 h, beerwort/peptone agar, 28° C., 2 weeks
Experimental: as §1

[9] = test system: Lentinus tigrinus; test: Agar MIC determination, Lentinus tigrinus; assay type: cell-based; conditions: 336 h, beerwort/peptone agar, 28° C., 2 weeks
Experimental: as §1

[10] = test system: Sclerophoma pityophila; test: Agar MIC determination, Sclerophoma pityophila; assay type: cell-based; conditions: Sydowia polyspora, 336 h, beerwort/peptone agar, 28° C., 2 weeks
Experimental: as §1

[11] = test system: fungi (Aspergillus niger, Aureobasidium pullulans, Alternaria speciales, Penicillium citrinum, Stachybotrys atra, Paecilomyces varioti, Cladosporium herbarum …); test: Testing of paint films for resistance to mould (Report 219, Defense Standards Laboratories); conditions: 1.5 to 2% (or more) based on total solids content
Experimental: The test is carried out in accordance with Report 219 of the Defense Standards Laboratories Maibyrnong/Australia, as follows: smooth cardboard is coated on both sides with the product to be tested and is dried at room temperature for 8 days. For ageing, part of the coating is kept in running water at 24° C. for 24 hours, part is aerated with fresh air of 40° to 60° C. for 8 days, and part is exposed to a dry Xenon test for 110 hours. 5×5 cm sections of the test pieces thus treated are placed individually in Petri dishes on a glucose nutrient medium, and are contaminated with a spore suspension of the following fungi: Aspergillus niger, Aureobasidium pullulans, Alternaria speciales, Penicillium citrinum, Stachybotrys atra, Paecilomyces varioti, Cladosporium herbarum, Aspergillus ustus or Aspergillus flavus.
The contaminated dishes are kept at 28°-30° C. and 90-95% relative atmospheric humidity, and are evaluated after 3 weeks. Paint films are regarded as mould-resistant if the test pieces remain free from fungi after this test.
A commercially available, alkaline emulsion paint based on polyvinyl acetate is tested for mould resistance by the test method described above.

[12] = slime organisms about 10^6 germs/ml, Allens nutrient solution, room temperature, 3 weeks, read-out: MIC

MIC [4, 12] [mg/L] | SMILES | MIC [1] [µg/mL] | MIC [2] [µg/mL] | MIC [3] [µg/mL] | MIC [5] [µg/mL] | MIC [6] [µg/mL] | MIC [7] [µg/mL] | MIC [8] [µg/mL] | MIC [9] [µg/mL] | MIC [10] [µg/mL] | MIC ([4]; read-out: MIC in mg/liter) [mg/L] | mould resistance of paint films ([11]; alkaline polyvinyl acetate emulsion paint, 3 weeks, 28°-30° C.) | mould resistance of paint films after ageing ([11]; films first subjected to running water 24 hours, fresh air 40° to 60° C. 8 days, or dry Xenon test 110 hours)
30 (≈ 86.8 µM) | O=c1c2ccc(Cl)cc2nnn1CC#CI [Active compound C, 3-(3-Iodopropargyl)-7-chloro-benzo-1,2,3-triazin-4-one] | < 20 | < 20 | < 20 | – | – | – | – | – | – | – | – | –
– | CCCCNC(=O)OCC#CI [Active compound D, iodopropargyl N-butyl-carbamate, reference compound] | 80 (≈ 285 µM) | 60 (≈ 213 µM) | 40 (≈ 142 µM) | 140 (≈ 498 µM) | – | – | – | – | – | – | – | –
20 (≈ 56.2 µM) | O=c1c2cc([N+](=O)[O-])ccc2nnn1CC#CI [Active compound B, 3-(3-Iodopropargyl)-6-nitro-benzo-1,2,3-triazin-4-one] | < 20 | < 20 | < 20 | – | – | – | – | – | – | – | – | –
– | O=c1c2ccccc2nnn1CC#CI [Active compound A, 3-(3-Iodopropargyl)-benzo-1,2,3-triazin-4-one] | 5 (≈ 16.1 µM) | < 20 | 5 (≈ 16.1 µM) | 10 (≈ 32.1 µM) | 5 (≈ 16.1 µM) | 5 (≈ 16.1 µM) | 0.5 (≈ 1.61 µM) | 2 (≈ 6.43 µM) | 3.5 (≈ 11.3 µM) | 5 (≈ 16.1 µM) | very good mould-resistant paint films | very good mould-resistant paint films
